Where two headings read alike, the source gives them in different places.
How the values were obtained:
GSPT1 = GSPT1 (Homo sapiens, UniProt P15170+Q96SW2); test: Immunofluorescence assay for GSPT1 degradation in CAL-Si cells; assay type: cell-based; design: CAL-Si cells were purchased from DSMZ (cat. Number ACC302); host or cells: CAL-Si (CAL-51) cells; details: 6 hours treatment
Experimental: The representative compounds were tested in an immunofluorescence assay for their activity to bind to degrade GSPT1. CAL-Si cells were purchased from DSMZ (cat. Number ACC302), sub-cultured in 90% Dulbecco's MEM (4.5 g/L glucose, Gibco 11965)+10% […] inactivated FBS (BioConcept, 2-01F136I) and incubated at 37° C., 5% CO2. For the assay, imaging microtiterplate Cell Carrier 96 Ultra (Perkin Elmer 6055302) were pre-coated with Fibronectin (Sigma F085, 30 μl at 0.2 μg/ml) in PBS (100 μl, Gibco 14190) for 45 min at room temperature, rinsed with PBS and CAL-Si cells (30K cells/well) were plated and let to adhere overnight. Cells were treated with compounds typically using a serial dilution ranging from 30 μM to 0.1 nM for 6 hours. Compounds were stored at 10 mM DMSO stocks. Vehicle (DMSO), positive (CC-885, 10 μM) and rescue controls (positive control plus 0.2 μM bortezomib) were also included at this stage. Cells were subsequently rinsed with PBS and fixed in 10% Formalin solution (50 μl, Sigma HT5011)) for 20 mins at room temperature. Following three consecutive PBS washes (100 μl), cells were permeabilized in 0.1% Triton X-100 in PBS (Sigma 93443, 50 μl) for 15 mins at room temperature. Following three further PBS washes, […] blocking buffer (1% BSA, Sigma A4503, in PBS) was added for 45 min for signal-to-noise reduction.
Primary antibody (human GSPT1, Sigma HPA052488) was diluted in blocking buffer (dil.1/300, 35 μl/well) and incubated with the cells overnight at 4° C. After three PBS washes, Alexa-fluor 488 coupled secondary antibodies (Invitrogen, A32731, dil.1/1000), Alexa-fluor 647-Phalloidin (Invitrogen, A22287, dil.1/200) and DAPI (Thermo, #62248, dil.1/1000) were diluted in blocking buffer and incubated with the samples for 2 hours at room temperature. After three final PBS washes, samples were conserved in […] PBS in the dark, until measurement. Image acquisition was performed on the Operetta High-Content Imager (Perkin-Elmer). Fluorescence intensity of Alexa-Fluor 488 (GSPT1), Alexa-Fluor 647 (Actin) and DAPI (Nucleus) were measured. For the determination of GSPT1 DC50 values, a custom algorithm implemented in the PerkinElmer image analysis software Harmony-Acapella® was developed. After user-defined setting of adjustment parameters, the analysis was run identically without human intervention for all image fields. DAPI staining of the nuclei was used to determine the location of cells using standard nuclei detection modules. Segmentation artifacts were removed by threshold-based filters for area, roundness and intensity. The outline of the cells was determined analogously from the sum of the normalized, smoothed DAPI and Actin channel, starting from each nucleus.
The Alexa-Fluor 488 (GSPT1) signal intensity in each cell was finally measured, in order to obtain a Mean intensity per cell. GSPT1 degradation (DC50) was calculated after normalization to controls and data import in CDD vault Database, using non-linear regression.

IKZF3 = molecular target: T1, IKZF3 (Homo sapiens, UniProt Q96SW2+Q9UKT9); test: Selectivity determination by Western blot assay in MM1S cells: IKZF3; assay type: cell-based; design: key: A represents no degradation observed at 30 μM; B represents trace degradation at 30 μM (below 20%); C represents weak degradation at 30 μM (below 50%); D represents degradation at 30 μM (>90%); E represents degradation at 3 μM (>90%); F represents degradation at 0.3 μM (>90%); details: MM1S cells, 0.3, 3 and 30 μM, 6 hours
T1 construct: MM1S cells were purchased from ATCC (cat. Number CRL-2974); host or cells: MM1S cells
T1 sequence (Q9UKT9 whole entry): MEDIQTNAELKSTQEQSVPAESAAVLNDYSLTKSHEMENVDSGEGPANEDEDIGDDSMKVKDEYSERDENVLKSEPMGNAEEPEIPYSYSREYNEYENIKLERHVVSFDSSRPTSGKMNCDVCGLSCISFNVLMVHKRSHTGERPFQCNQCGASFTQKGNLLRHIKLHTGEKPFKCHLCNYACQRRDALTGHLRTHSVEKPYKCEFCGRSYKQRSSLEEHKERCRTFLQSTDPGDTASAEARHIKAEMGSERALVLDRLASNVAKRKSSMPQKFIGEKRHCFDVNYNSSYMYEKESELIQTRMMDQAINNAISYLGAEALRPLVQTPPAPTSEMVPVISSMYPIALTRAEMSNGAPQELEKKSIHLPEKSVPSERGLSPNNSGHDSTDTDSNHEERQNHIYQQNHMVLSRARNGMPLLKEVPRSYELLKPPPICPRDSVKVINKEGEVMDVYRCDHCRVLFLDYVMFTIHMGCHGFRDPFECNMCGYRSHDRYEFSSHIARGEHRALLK
T1 sequence (Q96SW2 whole entry): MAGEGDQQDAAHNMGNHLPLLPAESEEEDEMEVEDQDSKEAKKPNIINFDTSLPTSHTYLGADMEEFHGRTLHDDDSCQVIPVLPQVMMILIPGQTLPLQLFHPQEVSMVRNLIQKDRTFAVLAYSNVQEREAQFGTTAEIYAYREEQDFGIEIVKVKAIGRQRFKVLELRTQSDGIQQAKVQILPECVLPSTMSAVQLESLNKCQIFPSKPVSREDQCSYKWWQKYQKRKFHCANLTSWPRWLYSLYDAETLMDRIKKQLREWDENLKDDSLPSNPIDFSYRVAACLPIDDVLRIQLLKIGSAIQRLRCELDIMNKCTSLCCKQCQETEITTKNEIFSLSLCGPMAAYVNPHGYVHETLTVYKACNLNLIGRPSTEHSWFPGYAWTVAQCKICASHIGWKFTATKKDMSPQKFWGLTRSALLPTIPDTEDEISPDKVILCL
T1 sequence (Q16531 whole entry partner): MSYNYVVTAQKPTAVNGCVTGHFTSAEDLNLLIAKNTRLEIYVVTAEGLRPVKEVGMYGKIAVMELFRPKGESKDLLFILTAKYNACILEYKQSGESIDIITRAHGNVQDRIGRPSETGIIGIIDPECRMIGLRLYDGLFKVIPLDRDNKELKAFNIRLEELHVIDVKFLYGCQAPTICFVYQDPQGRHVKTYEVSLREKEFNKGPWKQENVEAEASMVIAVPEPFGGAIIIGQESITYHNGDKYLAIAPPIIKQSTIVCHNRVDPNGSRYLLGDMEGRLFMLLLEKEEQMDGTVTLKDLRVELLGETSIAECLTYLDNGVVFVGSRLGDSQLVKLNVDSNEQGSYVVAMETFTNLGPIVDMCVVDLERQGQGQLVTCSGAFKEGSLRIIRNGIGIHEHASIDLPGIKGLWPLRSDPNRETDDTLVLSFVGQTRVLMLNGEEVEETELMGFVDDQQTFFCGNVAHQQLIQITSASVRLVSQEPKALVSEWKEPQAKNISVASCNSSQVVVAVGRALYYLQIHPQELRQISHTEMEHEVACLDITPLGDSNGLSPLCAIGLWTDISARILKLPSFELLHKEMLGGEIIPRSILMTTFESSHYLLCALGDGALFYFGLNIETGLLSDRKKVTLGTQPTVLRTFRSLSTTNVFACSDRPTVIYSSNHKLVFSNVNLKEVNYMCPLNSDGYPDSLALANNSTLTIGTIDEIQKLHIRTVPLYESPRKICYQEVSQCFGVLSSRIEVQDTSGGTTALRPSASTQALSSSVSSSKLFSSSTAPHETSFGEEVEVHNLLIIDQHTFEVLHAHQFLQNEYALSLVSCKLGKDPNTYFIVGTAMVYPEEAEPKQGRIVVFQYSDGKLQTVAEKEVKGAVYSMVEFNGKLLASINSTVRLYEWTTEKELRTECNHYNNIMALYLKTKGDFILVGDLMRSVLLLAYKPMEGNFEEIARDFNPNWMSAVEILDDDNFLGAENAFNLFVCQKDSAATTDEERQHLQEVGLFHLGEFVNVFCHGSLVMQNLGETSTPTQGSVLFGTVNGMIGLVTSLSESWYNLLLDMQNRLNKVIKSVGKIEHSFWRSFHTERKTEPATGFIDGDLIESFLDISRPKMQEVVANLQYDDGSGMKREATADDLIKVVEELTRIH
Experimental: MM1S cells were purchased from ATCC (cat. Number CRL-2974), sub-cultured in […] RPMI 1640 with 10% FBS, supplemented with Ix P/S and incubated at 37° C., […]. Compounds were stored as 10 mM DMSO stock. For the assay, MM1S cells (3 million cells/well) were plated in 6-well plates and incubated over night. Cells were treated with respective compounds using a serial dilution: 0.3 μM, 3 μM and 30 μM as well as a vehicle only (DMSO) control for 6 hours. Media with suspension cells was subsequently transferred to 15 mL conical tubes, wells rinsed twice with ice-cold PBS and merged with cell suspension in respective 15 mL conical tube. Cells were spinned down, supernatant aspirated, pellets resuspended in ice-cold PBS and transferred to microtubes. Cells were spinned down, supernatant aspirated and pellets resuspended in 120 μL RIPA lysis buffer supplemented with protease and phosphatase inhibitors. Cell lysates were incubated on ice for 20 minutes followed by centrifugation at >20,000×g for 5 min. Supernatants were transferred to fresh microtubes and stored at −80° C. Total protein concentration was determined using a BCA assay with a BSA standard curve and concentration of all samples was adjusted to 1 mg/mL. […] Chemiluminescence signals were then detected using a LAS-4000 system with default settings and signals quantified using Image Studio Lite software (version 5.2). […]

[1] = read-out: Code: activity for GSPT1 degradation (DC50)
[2] = GSPT1 degradation, read-out: DC50

Chain of GSPT1 (P15170 whole entry): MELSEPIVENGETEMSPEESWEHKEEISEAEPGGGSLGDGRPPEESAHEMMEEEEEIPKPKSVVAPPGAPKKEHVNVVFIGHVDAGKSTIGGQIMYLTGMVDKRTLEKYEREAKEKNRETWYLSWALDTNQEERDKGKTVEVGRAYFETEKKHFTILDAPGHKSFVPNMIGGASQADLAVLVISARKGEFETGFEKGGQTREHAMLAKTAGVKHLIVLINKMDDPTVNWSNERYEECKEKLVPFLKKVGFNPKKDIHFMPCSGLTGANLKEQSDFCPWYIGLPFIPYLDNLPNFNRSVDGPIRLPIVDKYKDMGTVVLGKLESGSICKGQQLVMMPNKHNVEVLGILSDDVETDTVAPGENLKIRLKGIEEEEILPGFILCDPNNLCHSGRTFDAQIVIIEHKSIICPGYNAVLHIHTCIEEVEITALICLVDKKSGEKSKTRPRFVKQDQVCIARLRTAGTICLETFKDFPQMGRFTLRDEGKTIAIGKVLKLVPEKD
Chain of GSPT1 (Q96SW2 whole entry): as the sequence (Q96SW2 whole entry) above
Chain of GSPT1 (Q16531 whole entry partner): as the sequence (Q16531 whole entry partner) above

Row | DC50 (GSPT1; [1]) [nM] | DC50 (GSPT1; [2]) [nM] | SMILES | IKZF3 degradation code (IKZF3)
1 | ≤ 30 | 16 | Cc1ccc(NC(=O)CCc2ccc3c(c2)C(=O)N(C2CCC(=O)NC2=O)C3)cc1Cl (stereo not drawn) [Compound 1] | A
2 | ≤ 30 | 6 | Cc1c(Cl)cc(NC(=O)CCc2ccc3c(c2)C(=O)N(C2CCC(=O)NC2=O)C3)cc1CN1CCOCC1 (stereo not drawn) [Compound 2] | C (C represents weak degradation at 30 μM (below 50%))
